We go through 35 substances from paper PMC8298264, “Function of cofactor Akirin2 in the regulation of gene expression in model human neutrophil-like HL60 cells” (Bioscience Reports, 2021).

Chain of recAkirin2 (Q53H80 whole entry): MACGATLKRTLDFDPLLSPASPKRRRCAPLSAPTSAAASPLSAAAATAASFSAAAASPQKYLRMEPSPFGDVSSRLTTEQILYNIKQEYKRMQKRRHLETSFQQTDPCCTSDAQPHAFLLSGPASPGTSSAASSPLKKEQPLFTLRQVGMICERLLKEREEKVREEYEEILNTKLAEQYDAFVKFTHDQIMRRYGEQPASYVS

One test addresses recAkirin2 (Homo sapiens, UniProt Q53H80). The test is described as follows: Akirin2–IP interactions in HL60 lysate, c-Myc pull-down and dot blot. Type of test: binding. Conditions: recAkirin2 on c-Myc beads with HL60 lysate, dot blot; compared with SNRNP70, Student's t test P<0.05, n=2 biological replicates. On the procedure:
Some of the previously identified Akirin2 IPs were selected for analysis of Akirin2–IP interactions in human HL60 cells. The HL60 cells were pelleted, washed with cold PBS and proteins were extracted by adding 1 ml of cold TBS supplemented with protease inhibitor cocktail (Complete Mini EDTA-free, Roche, Switzerland). Cells were disrupted passing through a 20 G needle and sonicated (3 min/cycle, 3 cycles, 25°C) until lysate was clear. Lysate was centrifuged at 12000×g for 30 min at 4°C, after which the supernatant was collected, and protein concentration was determined using the BCA Protein Assay using BSA as the standard. The COOH-(Myc-([…])-DDK)-tagged recAkirin2 produced in human cells was used for interactions with the identified Akirin2–IPs, mediator of RNA polymerase II transcription subunit 16 (THRAP5; Q9Y2X0), phosphatidylinositol transfer protein-α isoform (PITPNA; Q00169), protein Wnt-2 (WNT2; P09544), and splicing factor 3a subunit 1 (SF3A1; Q15459). The U1 small nuclear ribonucleoprotein 70 kDa (SNRNP70; P08621) was used as protein negative control. […] Area and percent analysis of each chemiluminescence dot signal were obtained and analyzed using Fiji program (ImageJ 1.52n; https://downloads.tomsguide.com/ImageJ,0301-31184.html). […]
For the substance “SNRNP70: U1 small nuclear ribonucleoprotein 70 kDa (P08621), protein negative control”, the “Akirin2–IP interaction” value was “low interaction with Akirin2”.

Another test relates to human HL60 cells. Put plainly: SWATH-MS proteomics, differential protein representation, akirin2 KO vs WT HL60 cells. It counts as cell-based. Conditions: KO vs WT HL60 cells; sheet "Under-represented in KO". Here is the method: Total proteins were extracted from WT and akirin2 KO HL60 cells using the AllPrep DNA/RNA/Protein Mini Kit (Qiagen) and protein concentration was determined using the BCA Protein Assay with BSA (Sigma–Aldrich) as standard. Protein extracts (150 µg per sample, n=3 biological replicates) from each WT and KO cells were trypsin digested using the FASP Protein Digestion Kit (Expedeon Ltd., Abcam, Cambridge, U.K.) and sequencing grade trypsin (Promega, Madison, WI, U.S.A.) following manufacturer’s recommendations. The resulting peptides were finally desalted on to OMIX Pipette tips C18 (Agilent Technologies, Santa Clara, CA, U.S.A.), dried down and stored at −20 °C until mass spectrometry analysis. […] Three micrograms of each protein digest from the three biological replicates of WT and akirin2 KO HL60 cells were used for the generation of the reference spectral ion library as part of the SWATH-MS analysis.
Peptides were eluted in a 120-min gradient from 5 to 30% solvent B in solvent A followed by 15-min gradient from 30 to 60% solvent B in solvent A (solvent A: 0.1% formic acid in water, solvent B: 0.1% formic acid in acetonitrile) and directly injected into the mass spectrometer for analysis. For IDA experiments, the mass spectrometer was set to scanning full spectra (350–1400 m/z) using 250 ms accumulation time per spectrum, followed by up to 50 MS/MS scans (100–1500 m/z). Candidate ions with a charge state between +2 and +5 counts per second above a minimum threshold of 100 were isolated for fragmentation. One MS/MS spectrum was collected for 100 ms, before adding those precursor ions to the exclusion list for 15 s (mass spectrometer operated by Analyst TF 1.6, AB Sciex). Dynamic background subtraction was turned off. MS/MS analyses were recorded in high-sensitivity mode with rolling collision energy on and a collision energy spread of 5. For SWATH quantitative analysis, six independent samples (three replicates from WT and akirin2 KO HL60 cells, 5 µg each) were subjected to the cyclic DIA of mass spectra using the SWATH variable windows calculator (V 1.0, AB Sciex) and the SWATH acquisition method editor (AB Sciex), similar to established methods. […] For these experiments, a 50-ms survey scan (350–1400 m/z) was acquired at the beginning of each cycle, and SWATH–MS/MS spectra were collected from 100–1500 m/z for 70 ms at high-sensitivity mode, resulting in a cycle time of 3.6 s. Collision energy for each window was determined according to the calculation for a charge +2 ion-centered upon the window with a collision energy spread of 15. To create a spectral library of all the detectable peptides in the samples, the IDA MS raw files were combined and subjected to database search in unison using ProteinPilot software v. 5.0.1 (AB Sciex) with the Paragon algorithm. […] The detected protein threshold was set at 0.05. An independent false discovery rate (FDR) analysis, using the target–decoy approach provided by Protein Pilot (AB Sciex; https://sciex.com/products/software/proteinpilot-software), was used to assess the quality of identifications. Positive identifications were considered when identified proteins reached 1% of global FDR. […] Global normalization was performed according to the Total Area Sums (TAS) of all detected proteins in the samples. […] Heatmaps were prepared using the Heatmapper (http://www.heatmapper.ca/expression/) with average linkage and Euclidean distance measurement method.
On to sp¦Q07812¦BAX_HUMAN, for which the “Fold Change” value was 0.5501 and the “Log (Fold Change)” value is -0.2596.

Take sp¦O94804¦STK10_HUMAN: the “Fold Change” value is listed as 0.5498 and the “Log (Fold Change)” value was -0.2598.

Take sp¦Q92608¦DOCK2_HUMAN: the “Fold Change” value was determined as 0.4625 and the “Log (Fold Change)” value is on record as -0.3349.

With sp¦P31040¦SDHA_HUMAN, the “Fold Change” value stood at 0.5299 and the “Log (Fold Change)” value is -0.2758.

The test is the same for the next values; noted with them: KO vs WT; akirin2 KO vs WT HL60 cells; sheet "Under-represented in KO".
With sp¦Q8NE71¦ABCF1_HUMAN, the “Fold Change” value is reported as 0.6253 and the “Log (Fold Change)” value is reported as -0.2039.

On to sp¦Q01650¦LAT1_HUMAN, for which the “Fold Change” value amounted to 0.603 and the “Log (Fold Change)” value was -0.2197.

Take sp¦O00264¦PGRC1_HUMAN: the “Fold Change” value was 0.6168 and the “Log (Fold Change)” value is -0.2099.

Staying with this test, now noted: Over-represented in KO; KO vs WT HL60 cells.
sp¦Q15056¦IF4H_HUMAN: the “Fold Change” value turned out to be 1.397 and the “Log (Fold Change)” value amounted to 0.1451.

For the substance sp¦P31689¦DNJA1_HUMAN, the “Fold Change” value is on record as 1.309 and the “Log (Fold Change)” value was 0.117.

The same test, now with this note: SWATH-MS, akirin2 KO vs WT HL60 cells, under-represented in KO.
On to sp¦P29350¦PTN6_HUMAN, for which the “Fold Change” value came to 0.7017 and the “Log (Fold Change)” value is listed as -0.1538.

In the case of sp¦P12268¦IMDH2_HUMAN, the “Fold Change” value was 0.7306 and the “Log (Fold Change)” value is reported as -0.1363.

With sp¦O43813¦LANC1_HUMAN, the “Fold Change” value is 0.7366 and the “Log (Fold Change)” value is -0.1328.

Take sp¦O00148¦DX39A_HUMAN: the “Fold Change” value came to 0.7315 and the “Log (Fold Change)” value was -0.1358.

With sp¦Q9H0U4¦RAB1B_HUMAN, the “Fold Change” value was 0.704 and the “Log (Fold Change)” value was -0.1524.

The test is the same for the next values; noted with them: SWATH-MS, akirin2 KO vs WT HL60 cells; over-represented in KO.
Take Galectin-10: the “Fold Change” value came to 4.451 and the “Log (Fold Change)” value is reported as 0.6485.

As to Galectin-1, the “Fold Change” value came to 1.707 and the “Log (Fold Change)” value is 0.2322.

For the substance Chitinase-3-like protein 1, the “Fold Change” value is given as 1.904 and the “Log (Fold Change)” value is reported as 0.2797.

For the substance Heat shock 70 kDa protein 1B, the “Fold Change” value turned out to be 1.868 and the “Log (Fold Change)” value amounted to 0.2713.

Staying with this test, now noted: SWATH-MS, akirin2 KO vs WT HL60 cells; sheet "Under-represented in KO".
Consider sp¦P35250¦RFC2_HUMAN, for which the “Fold Change” value is 0.7882 and the “Log (Fold Change)” value is reported as -0.1034.

As to sp¦O43681¦GET3_HUMAN, the “Fold Change” value came out at 0.7665 and the “Log (Fold Change)” value is reported as -0.1155.

sp¦Q02880¦TOP2B_HUMAN: the “Fold Change” value is 0.7738 and the “Log (Fold Change)” value is -0.1113.

Staying with this test, now noted: akirin2 KO vs WT HL60 cells; sheet "Over-represented in KO".
sp¦P15531¦NDKA_HUMAN: the “Fold Change” value was 1.204 and the “Log (Fold Change)” value was found to be 0.08072.

With sp¦O00231¦PSD11_HUMAN, the “Fold Change” value is 1.117 and the “Log (Fold Change)” value was 0.04806.

On to sp¦O43447¦PPIH_HUMAN, for which the “Fold Change” value came out at 1.22 and the “Log (Fold Change)” value is listed as 0.08634.

As for sp¦P55072¦TERA_HUMAN, the “Fold Change” value worked out at 1.115 and the “Log (Fold Change)” value was found to be 0.04741.

Staying with this test, now noted: akirin2 KO vs WT HL60 cells; sheet "Under-represented in KO".
Take sp¦Q9NR31¦SAR1A_HUMAN: the “Fold Change” value came to 0.4316 and the “Log (Fold Change)” value is on record as -0.3649.

For the substance sp¦P00367¦DHE3_HUMAN, the “Fold Change” value turned out to be 0.6801 and the “Log (Fold Change)” value is recorded as -0.1674.

For the substance sp¦P05556¦ITB1_HUMAN, the “Fold Change” value was 0.257 and the “Log (Fold Change)” value is reported as -0.5901.

Regarding sp¦P84077¦ARF1_HUMAN, the “Fold Change” value stood at 0.682 and the “Log (Fold Change)” value is -0.1662.

Regarding sp¦Q08945¦SSRP1_HUMAN, the “Fold Change” value is listed as 0.3484 and the “Log (Fold Change)” value is on record as -0.4579.

A further test has as its system AKR2.
Experiment: not given
More on the design: key: A: Very high confidence in the interaction; B: High confidence in the interaction; D: Moderate confidence in the interaction. The settings on record: AKR2-interacting proteins (IPs), physical interactome; ref https://doi.org/10.3390/vaccines8010077; cited from earlier work. From the text: Supplement BSR-2021-1120_supp1.zip/BSR-2021-1120_suppST4.xlsx, sheet "BPs related to AKR2-IPs" | column: Predicted Biological Score (PBS)
Take RGPD8: the “Predicted Biological Score (PBS)” value is listed as “A”.

Take RGPD3: the “Predicted Biological Score (PBS)” value is “A”.

Take WDYHV1: the “Predicted Biological Score (PBS)” value is “A”.

RGPD5: the “Predicted Biological Score (PBS)” value is “A”.
